Measurements reported in US20080058213A1, “Benzoxazole Compounds” (priority 2004, published 2008).

What was measured:
Format in all cases: in vivo
wheat [1] = test: Foliage treatment test for upland field (Test Example 3): phytotoxicity to wheat; conditions: foliage treatment at 1.0-2.0 leaf stage of southern crabgrass, examined after 3 weeks
Experimental: (§1) Evaluation of phytotoxicity is shown in the following six grades, as compared with the condition of untreated control: • 0: normal growth • 1: little damaged • 2: low damaged • 3: medium damaged • 4: serious damaged • 5: complete killed.
(§2) Compost mixed soil was filled in 1/3,000 are pots, seeded with southern crabgrass, common lambsquaters, slender amaranth, common purslane, velvetleaf, wheat, corn and soybean. The seeds were covered up with the soil and cultured in a glasshouse kept at 25° C. on the average.
(§3) After placing the test pots in a grasshouse kept at 25° C. on the average for 3 weeks, the herbicidal effect was examined.

[2] = tested on: common lambsquaters (Chenopodium album); test: Soil treatment test for upland field (Test Example 2): common lambsquaters; conditions: soil treatment before germination, examined after 3 weeks
From the text: (§4) Evaluation of the herbicidal effect is shown in the following six grades, by comparing the condition of untreated control and growth inhibition (%): • 0: 0%-less than 20% • 1: 20%-less than 40% • 2: 40%-less than 60% • 3: 60%-less than 80% • 4: 80%-less than 100% • 5: 100%.
(§5) Upland field soil was filled in 1/3,000 are pots, seeded with southern crabgrass (Digitaria ciliaris), common lambsquaters (Chenopodium album), slender amaranth (Amaranthus viridis), common purslane (Portulaca oleracea), velvetleaf (Abutilon theophrasti), wheat, corn and soybean. The seeds were covered up with the soil.
(§6) Wettable powders containing the object compounds (1) as identified in Table 1, which were formulated following Preparation Example 2, were diluted with adequate amount of water to secure the prescribed dose of the active ingredient, and uniformly sprayed onto the surface soil layer after the seeding and before germination of the weeds, at an application water of 15 liters per are.
(§7) After placing the test pots in a glasshouse which was kept at an average temperature of 25° C. for 3 weeks, the herbicidal effect was examined.
(§8) Evaluations of the herbicidal effect and phytotoxicity were made in the manner similar to those in the above Test Example 1.

rice plant = test: Weed control test for paddy field (Test Example 1): phytotoxicity to rice plant; conditions: paddy pots, treated at 1.0 leaf stage of barnyard grass, examined after 3 weeks
From the text: (§9) Paddy field soil was filled in 1/10,000 are pots, kneaded with adequate amounts of water and chemical fertilizer, seeded with barnyard grass (Echinochloa crusgalli), Monochoria (Monochoria vaginalis), Japanese bulrush (Scirpus juncoides) and flat sedge (Cyperus serotinus), and further transplanted with 2.0 leaf stage of rice plant. The pots were maintained under the water-filled condition to a depth of 3 cm.
(§10) Wettable powders containing the compounds (1) as identified in Table 1, which were formulated following Production Example 2, were diluted with adequate amount of water and applied to the pots dropwise with pippet at a prescribed dose of the active ingredients per are, at 1.0 leaf stage of the barnyard grass.
(§11) After placing the pots in a glasshouse which was controlled at an average temperature of 25° C. for 3 weeks, herbicidal effect was examined.
as §1

soybean [3] = test: Soil treatment test for upland field (Test Example 2): phytotoxicity to soybean; conditions: soil treatment before germination, examined after 3 weeks
From the text: as §1, §5, §7

[4] = tested on: velvetleaf (Abutilon theophrasti); test: Soil treatment test for upland field (Test Example 2): velvetleaf; conditions: soil treatment before germination, examined after 3 weeks
From the text: as §4, §5, §6, §7, §8

wheat [5] = test: Soil treatment test for upland field (Test Example 2): phytotoxicity to wheat; conditions: soil treatment before germination, examined after 3 weeks
From the text: as §1, §5, §7

[6] = tested on: Monochoria (Monochoria vaginalis); test: Weed control test for paddy field (Test Example 1): Monochoria; conditions: paddy pots, treated at 1.0 leaf stage of barnyard grass, examined after 3 weeks
From the text: as §9, §10, §11, §4

[7] = tested on: flat sedge (Cyperus serotinus); test: Weed control test for paddy field (Test Example 1): flat sedge; conditions: paddy pots, treated at 1.0 leaf stage of barnyard grass, examined after 3 weeks
From the text: as §9, §10, §11, §4

[8] = tested on: slender amaranth (Amaranthus viridis); test: Soil treatment test for upland field (Test Example 2): slender amaranth; conditions: soil treatment before germination, examined after 3 weeks
From the text: as §4, §5, §6, §7, §8

[9] = tested on: Japanese bulrush (Scirpus juncoides); test: Weed control test for paddy field (Test Example 1): Japanese bulrush; conditions: paddy pots, treated at 1.0 leaf stage of barnyard grass, examined after 3 weeks
From the text: as §9, §10, §11, §4

[10] = tested on: common purslane (Portulaca oleracea); test: Soil treatment test for upland field (Test Example 2): common purslane; conditions: soil treatment before germination, examined after 3 weeks
From the text: as §4, §5, §6, §7, §8

[11] = tested on: southern crabgrass (Digitaria ciliaris); test: Soil treatment test for upland field (Test Example 2): southern crabgrass; conditions: soil treatment before germination, examined after 3 weeks
From the text: as §4, §5, §6, §7, §8

velvetleaf = test: Foliage treatment test for upland field (Test Example 3): velvetleaf; conditions: foliage treatment at 1.0-2.0 leaf stage of southern crabgrass, examined after 3 weeks
From the text: as §4, §2
(§12) Wettable powders containing the object compounds (1) as identified in Table 1, which were formulated following Preparation Example 2, were diluted with water to the prescribed dose of the active ingredient, and uniformly sprayed onto the weeds at 1.0-2.0 leaf stage of the southern crabgrass at an application water of 15 liters per are.
as §3
(§13) Evaluation of the herbicidal effect was conducted in the similar manner to Test Example 1.

soybean [12] = test: Foliage treatment test for upland field (Test Example 3): phytotoxicity to soybean; conditions: foliage treatment at 1.0-2.0 leaf stage of southern crabgrass, examined after 3 weeks
Experimental: as §1, §2, §3

corn [13] = test: Soil treatment test for upland field (Test Example 2): phytotoxicity to corn; conditions: soil treatment before germination, examined after 3 weeks
From the text: as §1, §5, §7

southern crabgrass = test: Foliage treatment test for upland field (Test Example 3): southern crabgrass; conditions: foliage treatment at 1.0-2.0 leaf stage of southern crabgrass, examined after 3 weeks
From the text: as §4, §2, §12, §3, §13

[14] = tested on: barnyard grass (Echinochloa crusgalli); test: Weed control test for paddy field (Test Example 1): barnyard grass; conditions: paddy pots, treated at 1.0 leaf stage of barnyard grass, examined after 3 weeks
From the text: as §9, §10, §11, §4

slender amaranth = test: Foliage treatment test for upland field (Test Example 3): slender amaranth; conditions: foliage treatment at 1.0-2.0 leaf stage of southern crabgrass, examined after 3 weeks
From the text: as §4, §2, §12, §3, §13

common lambsquaters = test: Foliage treatment test for upland field (Test Example 3): common lambsquaters; conditions: foliage treatment at 1.0-2.0 leaf stage of southern crabgrass, examined after 3 weeks
From the text: as §4, §2, §12, §3, §13

corn [15] = test: Foliage treatment test for upland field (Test Example 3): phytotoxicity to corn; conditions: foliage treatment at 1.0-2.0 leaf stage of southern crabgrass, examined after 3 weeks
Experimental: as §1, §2, §3

common purslane = test: Foliage treatment test for upland field (Test Example 3): common purslane; conditions: foliage treatment at 1.0-2.0 leaf stage of southern crabgrass, examined after 3 weeks
From the text: as §4, §2, §12, §3, §13

COCC(=Cc1ccc(F)c(C(F)(F)F)c1)c1nc2cc(F)c(F)cc2o1 [Compound 126]
Phytotoxicity wheat (wheat [1]; dose 2.5 g ai/a): 0
Phytotoxicity wheat (wheat [1]; dose 5 g ai/a): 1
Herbicidal Effect common lambsquaters ([2]; dose 2.5 g ai/a): 5 (100%)
Herbicidal Effect common lambsquaters ([2]; dose 5 g ai/a): 5 (100%)
Phytotoxicity Rice plant (rice plant; dose 2.5 g ai/a): 0
Phytotoxicity Rice plant (rice plant; dose 5 g ai/a): 0
Phytotoxicity soybean (soybean [3]; dose 2.5 g ai/a): 0
Phytotoxicity soybean (soybean [3]; dose 5 g ai/a): 0
Herbicidal Effect velvetleaf ([4]; dose 2.5 g ai/a): 3 (60%-less than 80%)
Herbicidal Effect velvetleaf ([4]; dose 5 g ai/a): 4 (80%-less than 100%)
Phytotoxicity wheat (wheat [5]; dose 2.5 g ai/a): 0
Phytotoxicity wheat (wheat [5]; dose 5 g ai/a): 0
Herbicidal Effect Monochoria vaginalis ([6]; dose 2.5 g ai/a): 5 (100%)
Herbicidal Effect Monochoria vaginalis ([6]; dose 5 g ai/a): 5 (100%)
Herbicidal Effect Flat sedge ([7]; dose 2.5 g ai/a): 2 (40%-less than 60%)
Herbicidal Effect Flat sedge ([7]; dose 5 g ai/a): 3 (60%-less than 80%)
Herbicidal Effect slender amaranth ([8]; dose 2.5 g ai/a): 5 (100%)
Herbicidal Effect slender amaranth ([8]; dose 5 g ai/a): 5 (100%)
Herbicidal Effect Japanese bulrush ([9]; dose 2.5 g ai/a): 3 (60%-less than 80%)
Herbicidal Effect Japanese bulrush ([9]; dose 5 g ai/a): 4 (80%-less than 100%)
Herbicidal Effect common purslane ([10]; dose 2.5 g ai/a): 5 (100%)
Herbicidal Effect common purslane ([10]; dose 5 g ai/a): 5 (100%)
Herbicidal Effect southern crabgrass ([11]; dose 2.5 g ai/a): 4 (80%-less than 100%)
Herbicidal Effect southern crabgrass ([11]; dose 5 g ai/a): 5 (100%)
Herbicidal Effect velvetleaf (velvetleaf; dose 2.5 g ai/a): 3 (60%-less than 80%)
Herbicidal Effect velvetleaf (velvetleaf; dose 5 g ai/a): 4 (80%-less than 100%)
Phytotoxicity soybean (soybean [12]; dose 2.5 g ai/a): 1
Phytotoxicity soybean (soybean [12]; dose 5 g ai/a): 1
Phytotoxicity corn (corn [13]; dose 2.5 g ai/a): 0
Phytotoxicity corn (corn [13]; dose 5 g ai/a): 0
Herbicidal Effect southern crabgrass (southern crabgrass; dose 2.5 g ai/a): 4 (80%-less than 100%)
Herbicidal Effect southern crabgrass (southern crabgrass; dose 5 g ai/a): 5 (100%)
Herbicidal Effect Barnyard grass ([14]; dose 2.5 g ai/a): 5 (100%)
Herbicidal Effect Barnyard grass ([14]; dose 5 g ai/a): 5 (100%)
Herbicidal Effect slender amaranth (slender amaranth; dose 2.5 g ai/a): 5 (100%)
Herbicidal Effect slender amaranth (slender amaranth; dose 5 g ai/a): 5 (100%)
Herbicidal Effect Common lambsquatters (common lambsquaters; dose 2.5 g ai/a): 5 (100%)
Herbicidal Effect Common lambsquatters (common lambsquaters; dose 5 g ai/a): 5 (100%)
Phytotoxicity corn (corn [15]; dose 2.5 g ai/a): 0
Phytotoxicity corn (corn [15]; dose 5 g ai/a): 1
Herbicidal Effect common purslane (common purslane; dose 2.5 g ai/a): 5 (100%)
Herbicidal Effect common purslane (common purslane; dose 5 g ai/a): 5 (100%)

CSCC(=Cc1cccc(C(F)(F)F)c1)c1nc2cc(Cl)ccc2o1 [Compound 30]
Herbicidal Effect common lambsquaters ([2]; dose 2.5 g ai/a): 4 (80%-less than 100%)
Herbicidal Effect common lambsquaters ([2]; dose 5 g ai/a): 4 (80%-less than 100%)
Phytotoxicity Rice plant (rice plant; dose 2.5 g ai/a): 0
Phytotoxicity Rice plant (rice plant; dose 5 g ai/a): 0
Phytotoxicity soybean (soybean [3]; dose 2.5 g ai/a): 0
Phytotoxicity soybean (soybean [3]; dose 5 g ai/a): 0
Herbicidal Effect velvetleaf ([4]; dose 2.5 g ai/a): 2 (40%-less than 60%)
Herbicidal Effect velvetleaf ([4]; dose 5 g ai/a): 2 (40%-less than 60%)
Phytotoxicity wheat (wheat [5]; dose 2.5 g ai/a): 0
Phytotoxicity wheat (wheat [5]; dose 5 g ai/a): 1
Herbicidal Effect Monochoria vaginalis ([6]; dose 2.5 g ai/a): 5 (100%)
Herbicidal Effect Monochoria vaginalis ([6]; dose 5 g ai/a): 5 (100%)
Herbicidal Effect Flat sedge ([7]; dose 2.5 g ai/a): 3 (60%-less than 80%)
Herbicidal Effect Flat sedge ([7]; dose 5 g ai/a): 5 (100%)
Herbicidal Effect slender amaranth ([8]; dose 2.5 g ai/a): 5 (100%)
Herbicidal Effect slender amaranth ([8]; dose 5 g ai/a): 5 (100%)
Herbicidal Effect Japanese bulrush ([9]; dose 2.5 g ai/a): 4 (80%-less than 100%)
Herbicidal Effect Japanese bulrush ([9]; dose 5 g ai/a): 5 (100%)
Herbicidal Effect common purslane ([10]; dose 2.5 g ai/a): 5 (100%)
Herbicidal Effect common purslane ([10]; dose 5 g ai/a): 5 (100%)
Herbicidal Effect southern crabgrass ([11]; dose 2.5 g ai/a): 3 (60%-less than 80%)
Herbicidal Effect southern crabgrass ([11]; dose 5 g ai/a): 5 (100%)
Phytotoxicity corn (corn [13]; dose 2.5 g ai/a): 0
Phytotoxicity corn (corn [13]; dose 5 g ai/a): 0
Herbicidal Effect Barnyard grass ([14]; dose 2.5 g ai/a): 4 (80%-less than 100%)
Herbicidal Effect Barnyard grass ([14]; dose 5 g ai/a): 5 (100%)
